Data set [1] has as its target Non-receptor tyrosine-protein kinase TYK2 (Homo sapiens, UniProt P29597).
The target of data set [2] is T1, Tyrosine-protein kinase JAK3 (Homo sapiens, UniProt P52333).
T1 sequence (P52333 whole entry): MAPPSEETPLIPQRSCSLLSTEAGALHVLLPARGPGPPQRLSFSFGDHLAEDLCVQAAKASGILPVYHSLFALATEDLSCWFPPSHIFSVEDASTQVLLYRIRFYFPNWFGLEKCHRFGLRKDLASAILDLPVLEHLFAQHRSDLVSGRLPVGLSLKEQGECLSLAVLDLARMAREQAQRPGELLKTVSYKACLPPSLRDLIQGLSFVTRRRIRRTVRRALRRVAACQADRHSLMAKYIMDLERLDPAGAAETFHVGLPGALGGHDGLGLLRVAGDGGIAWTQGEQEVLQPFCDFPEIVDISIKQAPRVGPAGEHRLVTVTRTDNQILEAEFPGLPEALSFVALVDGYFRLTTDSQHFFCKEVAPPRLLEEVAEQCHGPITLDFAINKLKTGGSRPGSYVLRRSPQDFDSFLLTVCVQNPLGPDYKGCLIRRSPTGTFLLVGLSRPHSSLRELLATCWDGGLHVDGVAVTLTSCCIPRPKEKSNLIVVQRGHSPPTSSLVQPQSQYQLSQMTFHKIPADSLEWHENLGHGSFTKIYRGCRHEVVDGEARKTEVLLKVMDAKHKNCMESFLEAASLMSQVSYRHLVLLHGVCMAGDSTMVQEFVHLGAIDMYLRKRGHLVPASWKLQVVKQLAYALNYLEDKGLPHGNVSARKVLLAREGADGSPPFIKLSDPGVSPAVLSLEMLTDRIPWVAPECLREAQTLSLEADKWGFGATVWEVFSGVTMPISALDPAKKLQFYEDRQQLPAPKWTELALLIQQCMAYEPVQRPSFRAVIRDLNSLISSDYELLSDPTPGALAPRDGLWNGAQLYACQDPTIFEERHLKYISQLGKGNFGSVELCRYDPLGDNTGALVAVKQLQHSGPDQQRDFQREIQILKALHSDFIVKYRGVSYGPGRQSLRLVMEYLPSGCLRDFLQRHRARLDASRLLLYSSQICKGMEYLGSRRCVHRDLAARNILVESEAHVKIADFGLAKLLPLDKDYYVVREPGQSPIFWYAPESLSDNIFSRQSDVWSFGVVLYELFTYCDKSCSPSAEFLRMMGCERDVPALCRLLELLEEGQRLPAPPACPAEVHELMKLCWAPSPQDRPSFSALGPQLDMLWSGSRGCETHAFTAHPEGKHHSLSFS
The format is cell-based.

Data set [3] addresses Tyrosine-protein kinase JAK2 (Homo sapiens, UniProt O60674).
The target in data set [4] is Tyrosine-protein kinase JAK1 (Homo sapiens, UniProt P23458).
For data set [5], the system named is CTLL. The note with it: mouse, 1 µM.
Description: Drug uptake in mouse CTLL cells assessed as whole cell extract measured per 50000 cells at 1 uM in growth medium by LC-MS/MS analysis
Data set [6] deals with CTLL. The conditions noted are these: mouse, 3.3 µM.
Description: Drug uptake in mouse CTLL cells assessed as whole cell extract measured per 50000 cells at 3.3 uM in growth medium by LC-MS/MS analysis
The subject of data set [7] is Jurkat. The note with it: human, 3.3 µM.
Description: Drug uptake in human Jurkat cells assessed as whole cell extract measured per 50000 cells at 3.3 uM in growth medium by LC-MS/MS analysis
Data set [8] has as its target Glycogen synthase kinase-3 beta (Homo sapiens, UniProt P49841). The data set can be described thus: Inhibition of GSK3-beta.
In data set [9] the target is T2, Tyrosine-protein kinase JAK3 (Mus musculus, UniProt Q62137).
T2 sequence (Q62137 whole entry): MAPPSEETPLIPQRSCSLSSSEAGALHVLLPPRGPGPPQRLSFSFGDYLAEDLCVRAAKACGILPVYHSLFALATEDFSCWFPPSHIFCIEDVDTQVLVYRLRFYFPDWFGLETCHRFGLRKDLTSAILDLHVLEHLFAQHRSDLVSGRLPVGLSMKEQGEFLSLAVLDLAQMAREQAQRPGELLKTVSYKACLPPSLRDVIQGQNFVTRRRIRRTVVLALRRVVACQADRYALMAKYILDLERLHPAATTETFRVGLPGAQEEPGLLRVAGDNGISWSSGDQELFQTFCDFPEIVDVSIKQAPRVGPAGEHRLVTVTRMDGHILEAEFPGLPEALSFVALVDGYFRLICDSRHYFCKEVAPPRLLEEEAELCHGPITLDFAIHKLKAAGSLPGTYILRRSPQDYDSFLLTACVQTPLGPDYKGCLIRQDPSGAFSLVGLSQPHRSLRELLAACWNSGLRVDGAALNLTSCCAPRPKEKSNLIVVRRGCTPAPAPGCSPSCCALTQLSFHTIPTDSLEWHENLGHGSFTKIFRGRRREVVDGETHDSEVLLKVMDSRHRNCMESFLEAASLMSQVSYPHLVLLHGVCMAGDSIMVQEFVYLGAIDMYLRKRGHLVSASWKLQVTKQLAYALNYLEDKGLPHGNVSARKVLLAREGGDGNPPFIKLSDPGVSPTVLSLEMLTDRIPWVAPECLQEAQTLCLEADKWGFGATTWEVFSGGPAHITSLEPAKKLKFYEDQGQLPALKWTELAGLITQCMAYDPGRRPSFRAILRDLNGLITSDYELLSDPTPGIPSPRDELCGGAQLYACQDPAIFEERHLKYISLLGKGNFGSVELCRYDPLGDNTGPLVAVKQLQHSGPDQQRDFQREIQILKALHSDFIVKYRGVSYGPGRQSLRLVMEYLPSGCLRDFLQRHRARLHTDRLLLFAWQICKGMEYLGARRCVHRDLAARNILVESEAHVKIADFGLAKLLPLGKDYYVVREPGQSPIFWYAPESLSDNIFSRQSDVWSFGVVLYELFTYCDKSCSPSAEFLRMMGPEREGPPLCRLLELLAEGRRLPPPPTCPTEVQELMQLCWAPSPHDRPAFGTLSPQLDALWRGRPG
Description: Inhibition of Jak3-mediated IL2-induced Stat5 phosphorylation in mouse CTLL cells by cell-based assay

Data set [10] deals with CTLL. The conditions noted are these: mouse, 10 µM.
Description: Drug uptake in mouse CTLL cells assessed as whole cell extract measured per 50000 cells at 10 uM in growth medium by LC-MS/MS analysis
Data set [11] concerns CTLL. The note with it: mouse, 0.33 µM.
Description: Drug uptake in mouse CTLL cells assessed as whole cell extract measured per 50000 cells at 0.33 uM in growth medium by LC-MS/MS analysis
For data set [12], the target named is Protein kinase C theta type (Homo sapiens, UniProt Q04759). The data set can be described thus: Inhibition of PKCtheta.
In data set [13] the test system is Jurkat. The conditions noted are these: human, 1 µM.
Description: Drug uptake in human Jurkat cells assessed as whole cell extract measured per 50000 cells at 1 uM in growth medium by LC-MS/MS analysis
The nature of the next data set: in vitro. The conditions noted are these: human, Caco-2.
For data set [14], the system named is Jurkat. The conditions noted are these: human, 10 µM.
Description: Drug uptake in human Jurkat cells assessed as whole cell extract measured per 50000 cells at 10 uM in growth medium by LC-MS/MS analysis
The test system of data set [15] is Jurkat. The data set can be described thus: cells. The conditions noted are these: Homo sapiens.
Description: Inhibition of antiTCR/antiCD28-stimulated IL2 production in human Jurkat cells by measuring bioluminescence
Data set [16] deals with Protein kinase C alpha type (Homo sapiens, UniProt P17252). The data set can be described thus: Inhibition of PKCalpha.
Data set [17] deals with Jurkat. The conditions noted are these: human, 0.33 µM.
Description: Drug uptake in human Jurkat cells assessed as whole cell extract measured per 50000 cells at 0.33 uM in growth medium by LC-MS/MS analysis

Sequence of Tyrosine-protein kinase JAK2 (O60674 whole entry): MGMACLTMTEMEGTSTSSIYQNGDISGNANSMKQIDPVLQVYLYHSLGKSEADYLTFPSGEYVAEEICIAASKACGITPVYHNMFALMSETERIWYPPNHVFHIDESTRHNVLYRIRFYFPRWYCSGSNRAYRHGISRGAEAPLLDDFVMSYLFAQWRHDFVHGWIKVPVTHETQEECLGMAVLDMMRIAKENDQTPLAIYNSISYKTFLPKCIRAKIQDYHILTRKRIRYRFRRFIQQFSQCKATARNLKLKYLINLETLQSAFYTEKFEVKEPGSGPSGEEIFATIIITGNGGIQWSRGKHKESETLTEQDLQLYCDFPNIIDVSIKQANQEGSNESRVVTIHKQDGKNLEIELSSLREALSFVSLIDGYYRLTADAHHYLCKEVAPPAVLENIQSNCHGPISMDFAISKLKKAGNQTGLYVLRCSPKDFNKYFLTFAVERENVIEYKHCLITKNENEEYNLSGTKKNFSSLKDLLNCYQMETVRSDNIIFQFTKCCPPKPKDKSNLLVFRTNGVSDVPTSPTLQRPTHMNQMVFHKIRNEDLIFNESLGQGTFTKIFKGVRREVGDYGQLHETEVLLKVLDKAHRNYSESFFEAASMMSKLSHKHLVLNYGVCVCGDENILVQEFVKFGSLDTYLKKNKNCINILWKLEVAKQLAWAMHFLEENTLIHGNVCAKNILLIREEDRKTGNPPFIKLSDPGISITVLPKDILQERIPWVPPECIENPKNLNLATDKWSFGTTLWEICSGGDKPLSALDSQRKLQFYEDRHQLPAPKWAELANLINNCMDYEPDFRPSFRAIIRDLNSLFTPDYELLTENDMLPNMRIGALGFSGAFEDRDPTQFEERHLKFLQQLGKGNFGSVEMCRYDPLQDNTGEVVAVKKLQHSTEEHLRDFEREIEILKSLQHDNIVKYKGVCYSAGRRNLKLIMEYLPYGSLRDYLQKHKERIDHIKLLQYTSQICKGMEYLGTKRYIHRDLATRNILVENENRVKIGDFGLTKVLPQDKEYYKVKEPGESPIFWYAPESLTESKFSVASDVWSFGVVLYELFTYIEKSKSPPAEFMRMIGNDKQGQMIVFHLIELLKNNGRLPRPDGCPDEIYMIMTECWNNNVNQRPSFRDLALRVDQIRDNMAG
Sequence of Tyrosine-protein kinase JAK1 (P23458 whole entry): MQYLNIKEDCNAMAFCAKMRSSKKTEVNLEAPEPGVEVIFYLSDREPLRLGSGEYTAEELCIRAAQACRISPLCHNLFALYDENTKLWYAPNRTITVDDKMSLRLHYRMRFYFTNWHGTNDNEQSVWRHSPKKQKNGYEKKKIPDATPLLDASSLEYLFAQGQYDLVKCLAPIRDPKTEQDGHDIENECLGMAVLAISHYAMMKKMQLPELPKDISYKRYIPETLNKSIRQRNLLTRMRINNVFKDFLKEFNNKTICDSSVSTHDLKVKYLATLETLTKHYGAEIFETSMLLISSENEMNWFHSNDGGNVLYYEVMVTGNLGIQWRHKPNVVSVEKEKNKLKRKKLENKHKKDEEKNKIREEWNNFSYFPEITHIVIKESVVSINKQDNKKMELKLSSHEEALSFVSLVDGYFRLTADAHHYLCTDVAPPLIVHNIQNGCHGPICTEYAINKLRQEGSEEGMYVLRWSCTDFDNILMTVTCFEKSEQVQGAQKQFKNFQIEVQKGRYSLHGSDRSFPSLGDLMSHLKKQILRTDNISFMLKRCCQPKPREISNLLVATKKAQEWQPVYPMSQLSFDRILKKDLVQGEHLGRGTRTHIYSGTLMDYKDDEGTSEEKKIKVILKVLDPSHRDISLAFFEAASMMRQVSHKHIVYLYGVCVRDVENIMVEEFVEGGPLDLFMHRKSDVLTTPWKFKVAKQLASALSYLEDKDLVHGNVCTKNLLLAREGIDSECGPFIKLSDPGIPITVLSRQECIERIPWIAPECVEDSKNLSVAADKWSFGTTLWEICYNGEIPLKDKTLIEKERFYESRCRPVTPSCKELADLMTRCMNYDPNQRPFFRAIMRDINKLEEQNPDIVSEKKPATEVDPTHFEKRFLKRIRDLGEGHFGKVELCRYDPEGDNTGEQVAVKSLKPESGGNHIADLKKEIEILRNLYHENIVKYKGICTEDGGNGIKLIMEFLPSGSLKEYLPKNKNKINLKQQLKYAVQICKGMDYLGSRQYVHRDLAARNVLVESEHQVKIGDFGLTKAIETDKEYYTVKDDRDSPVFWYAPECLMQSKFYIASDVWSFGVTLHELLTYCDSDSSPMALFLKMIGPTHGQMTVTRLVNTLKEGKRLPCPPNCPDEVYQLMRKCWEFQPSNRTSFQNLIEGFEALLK
Sequence of Non-receptor tyrosine-protein kinase TYK2 (P29597 whole entry): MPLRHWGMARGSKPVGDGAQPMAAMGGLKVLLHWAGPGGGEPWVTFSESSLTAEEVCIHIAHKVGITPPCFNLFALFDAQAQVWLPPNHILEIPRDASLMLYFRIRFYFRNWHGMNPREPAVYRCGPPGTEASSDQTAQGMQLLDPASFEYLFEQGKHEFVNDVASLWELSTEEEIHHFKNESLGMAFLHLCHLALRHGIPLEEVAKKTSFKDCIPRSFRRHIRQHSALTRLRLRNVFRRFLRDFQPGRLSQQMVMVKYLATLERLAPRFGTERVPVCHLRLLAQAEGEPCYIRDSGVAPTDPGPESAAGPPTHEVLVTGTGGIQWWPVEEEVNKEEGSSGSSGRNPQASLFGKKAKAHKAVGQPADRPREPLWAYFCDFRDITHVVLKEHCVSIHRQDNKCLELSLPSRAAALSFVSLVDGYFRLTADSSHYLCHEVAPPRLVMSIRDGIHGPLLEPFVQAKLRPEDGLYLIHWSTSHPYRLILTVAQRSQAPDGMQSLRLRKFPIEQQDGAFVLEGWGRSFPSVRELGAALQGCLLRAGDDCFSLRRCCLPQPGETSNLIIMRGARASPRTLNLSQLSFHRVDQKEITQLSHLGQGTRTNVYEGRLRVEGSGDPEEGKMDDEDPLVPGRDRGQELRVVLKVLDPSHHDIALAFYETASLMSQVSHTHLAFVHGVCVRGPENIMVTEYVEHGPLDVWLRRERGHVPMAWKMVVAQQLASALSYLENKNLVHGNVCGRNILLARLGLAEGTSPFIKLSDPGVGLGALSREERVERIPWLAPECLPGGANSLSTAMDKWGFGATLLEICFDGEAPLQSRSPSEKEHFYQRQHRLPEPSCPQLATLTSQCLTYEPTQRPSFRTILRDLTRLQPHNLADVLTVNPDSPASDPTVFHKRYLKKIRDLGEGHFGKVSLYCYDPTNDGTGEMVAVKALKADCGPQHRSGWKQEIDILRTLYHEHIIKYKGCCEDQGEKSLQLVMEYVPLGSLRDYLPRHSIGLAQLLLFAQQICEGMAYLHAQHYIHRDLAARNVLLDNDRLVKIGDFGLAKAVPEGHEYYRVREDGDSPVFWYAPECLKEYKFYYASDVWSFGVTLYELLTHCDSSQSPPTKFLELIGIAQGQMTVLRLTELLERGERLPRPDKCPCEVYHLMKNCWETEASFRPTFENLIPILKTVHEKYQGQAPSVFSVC
Sequence of Glycogen synthase kinase-3 beta (P49841 whole entry): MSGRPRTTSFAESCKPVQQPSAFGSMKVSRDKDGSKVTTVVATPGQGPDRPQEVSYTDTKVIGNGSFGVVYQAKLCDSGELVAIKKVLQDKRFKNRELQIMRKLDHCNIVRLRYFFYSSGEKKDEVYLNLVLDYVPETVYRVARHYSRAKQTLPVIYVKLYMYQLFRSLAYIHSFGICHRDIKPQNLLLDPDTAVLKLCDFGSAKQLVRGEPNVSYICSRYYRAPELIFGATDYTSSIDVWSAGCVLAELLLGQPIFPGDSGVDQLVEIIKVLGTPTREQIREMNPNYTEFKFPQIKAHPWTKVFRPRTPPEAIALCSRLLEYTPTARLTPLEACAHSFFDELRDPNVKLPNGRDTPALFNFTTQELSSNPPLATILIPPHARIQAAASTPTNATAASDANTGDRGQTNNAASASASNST

For the compound `O=C1NC(=O)C(c2c[nH]c3ccccc23)=C1c1cc(N2CCNCC2)ccc1C(F)(F)F`, the 50% inhibitory concentration (IC50) in data set [1] is over 10000 nM; in [2] it was 133 nM; in data set [3], 4700 nM; in data set [4], 737 nM.

With `CC(C)(O)C(=O)N1CCN(c2ccc(C(F)(F)F)c(C3=C(c4c[nH]c5ccccc45)C(=O)NC3=O)c2)CC1`, the Drug uptake in the data set with CTLL [5] turned out to be 10.97 pmol; in the data set on CTLL [6] it was 31.27 pmol; in the data set on Jurkat [7] it was 23.48 pmol; with CTLL [10], 64.33 pmol; in the data set with CTLL [11], 3.12 pmol; with Jurkat [13], 7.88 pmol. Further, the Drug uptake in the data set on Jurkat [14] worked out at 55.58 pmol; with Jurkat [17], 2.4 pmol. Moreover, the IC50 in [8] is 3 nM; in data set [9], 1290 nM; in data set [12], 68 nM; in the data set on Jurkat [15], 689 nM; in data set [16], 13 nM. In addition, in “in vitro”, the apparent permeability from apical to basolateral (Papp A→B) was found to be 3 ×10⁻⁶ cm/s.

Regarding `O=C1NC(=O)C(c2c[nH]c3ccccc23)=C1c1cc(N2CCOCC2)ccc1C(F)(F)F`, the IC50 in [1] is over 10000 nM; in data set [2], 460 nM; in data set [3] it was over 10000 nM; in data set [4], 6500 nM.

Take `CN(C)c1ccc(C(F)(F)F)c(C2=C(c3c[nH]c4ccccc34)C(=O)NC2=O)c1`: the IC50 in data set [1] is over 10000 nM; in data set [2], 423 nM; in data set [3], 9150 nM; in data set [4], 4700 nM.

As for `O=C1CCN(c2ncc(C(F)(F)F)c(C3=C(c4c[nH]c5ccccc45)C(=O)NC3=O)n2)CC1`, the half-inhibitory concentration (IC50) in data set [1] was 4330 nM; in data set [3] it was 330 nM; in [4], 253 nM.

On to `O=C1NC(=O)C(c2c[nH]c3ccccc23)=C1c1cc(F)ccc1C(F)(F)F`, for which the concentration for half-maximal inhibition (IC50) in data set [1], in data set [2], in [3] and in data set [4] was over 10000 nM each time.

`O=CN1CCN(c2ccc(C(F)(F)F)c(C3=C(c4c[nH]c5ccccc45)C(=O)NC3=O)c2)CC1`: the IC50 in [1] was determined as 5040 nM; in [2], 36 nM; in [3] it was 1440 nM; in data set [4], 754 nM.

These data come from ChEMBL document CHEMBL1649080, “Identification of a potent Janus kinase 3 inhibitor with high selectivity within the Janus kinase family” (J Med Chem, 2011).
